Source: ChEMBL document CHEMBL1151315, “Baicalein, an alpha-glucosidase inhibitor from Scutellaria baicalensis” (J Nat Prod, 1998)
Activity calls are given as the source filed them. The calls are words filed in the database; no cut-off is given here.

Columns and labels:
[1] = biological target: T1, Sucrase-isomaltase, intestinal (Homo sapiens, UniProt P14410); experiment: Inhibition of human intestinal sucrase
[2] = biological target: Sucrase-isomaltase, intestinal (Rattus norvegicus, UniProt P23739); experiment: Inhibition of rat intestinal sucrase
[3] = biological target: T1, Sucrase-isomaltase, intestinal; experiment: Inhibition of human intestinal sucrase in human Caco-2 cell membrane; format: cell-based
Target sequence in this assay (P14410 2-1007 limits assumed): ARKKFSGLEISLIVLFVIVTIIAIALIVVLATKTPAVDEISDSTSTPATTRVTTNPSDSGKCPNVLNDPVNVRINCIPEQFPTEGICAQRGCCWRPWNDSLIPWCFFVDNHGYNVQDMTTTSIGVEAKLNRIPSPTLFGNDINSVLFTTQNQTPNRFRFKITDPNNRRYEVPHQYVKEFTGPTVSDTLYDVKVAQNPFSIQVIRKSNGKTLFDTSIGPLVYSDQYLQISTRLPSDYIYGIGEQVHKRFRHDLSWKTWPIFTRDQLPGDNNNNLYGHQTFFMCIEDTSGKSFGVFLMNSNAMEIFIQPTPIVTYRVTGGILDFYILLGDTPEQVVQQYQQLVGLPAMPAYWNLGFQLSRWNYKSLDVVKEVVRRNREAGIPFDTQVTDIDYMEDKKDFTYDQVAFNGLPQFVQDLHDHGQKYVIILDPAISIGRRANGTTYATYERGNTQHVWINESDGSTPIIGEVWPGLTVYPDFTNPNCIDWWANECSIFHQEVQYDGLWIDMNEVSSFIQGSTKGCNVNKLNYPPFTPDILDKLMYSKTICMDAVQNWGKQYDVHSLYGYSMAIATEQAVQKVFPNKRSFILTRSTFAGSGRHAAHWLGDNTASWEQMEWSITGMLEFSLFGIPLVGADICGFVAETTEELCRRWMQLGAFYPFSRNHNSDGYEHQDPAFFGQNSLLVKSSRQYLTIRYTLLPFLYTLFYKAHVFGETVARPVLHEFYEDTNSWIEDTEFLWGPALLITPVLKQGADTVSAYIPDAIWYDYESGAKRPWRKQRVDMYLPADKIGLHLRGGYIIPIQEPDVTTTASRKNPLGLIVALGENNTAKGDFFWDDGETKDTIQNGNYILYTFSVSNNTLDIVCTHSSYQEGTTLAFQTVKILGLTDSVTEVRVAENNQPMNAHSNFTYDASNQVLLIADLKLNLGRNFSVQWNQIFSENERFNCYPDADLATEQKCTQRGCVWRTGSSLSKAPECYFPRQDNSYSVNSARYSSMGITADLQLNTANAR
Target sequence in this assay (P14410 1008-1827 limits assumed): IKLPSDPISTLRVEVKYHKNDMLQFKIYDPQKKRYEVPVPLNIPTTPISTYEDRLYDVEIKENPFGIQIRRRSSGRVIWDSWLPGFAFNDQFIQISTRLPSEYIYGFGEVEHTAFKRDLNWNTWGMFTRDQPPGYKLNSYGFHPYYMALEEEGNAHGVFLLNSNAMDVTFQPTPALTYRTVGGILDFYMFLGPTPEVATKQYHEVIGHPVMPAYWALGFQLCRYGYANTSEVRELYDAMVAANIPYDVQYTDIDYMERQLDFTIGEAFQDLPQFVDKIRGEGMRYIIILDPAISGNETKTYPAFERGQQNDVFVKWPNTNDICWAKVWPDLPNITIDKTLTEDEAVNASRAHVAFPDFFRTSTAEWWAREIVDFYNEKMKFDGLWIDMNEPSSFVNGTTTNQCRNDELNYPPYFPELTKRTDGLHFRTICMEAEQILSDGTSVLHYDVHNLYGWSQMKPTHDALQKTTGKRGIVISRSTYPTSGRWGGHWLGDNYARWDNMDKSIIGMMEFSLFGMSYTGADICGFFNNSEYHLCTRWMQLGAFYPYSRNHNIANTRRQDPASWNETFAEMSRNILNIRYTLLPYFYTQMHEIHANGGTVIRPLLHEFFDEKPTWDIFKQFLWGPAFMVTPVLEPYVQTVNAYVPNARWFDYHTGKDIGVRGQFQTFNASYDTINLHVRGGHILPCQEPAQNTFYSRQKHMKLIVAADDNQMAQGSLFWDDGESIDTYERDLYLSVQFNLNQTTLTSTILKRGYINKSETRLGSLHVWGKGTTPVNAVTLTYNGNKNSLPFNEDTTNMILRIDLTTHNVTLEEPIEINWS

[4] = biological target: Sucrase-isomaltase, intestinal (Rattus norvegicus) (UniProt P23739); conditions: Caco-2, 21 uM
Description: Inhibition of rat intestinal sucrase expressed in human Caco-2 cells at 21 uM

[5] = biological target: T1, Sucrase-isomaltase, intestinal; experiment: Inhibition of human intestinal sucrase in human Caco-2 cell membrane at 25 uM
Target sequence in this assay (P14410 2-1007 limits assumed): as the sequence (P14410 2-1007 limits assumed) above
Target sequence in this assay (P14410 1008-1827 limits assumed): as the sequence (P14410 1008-1827 limits assumed) above

Sucrase-isomaltase, intestinal (Rattus norvegicus), sequence (P23739 1-1013 limits assumed): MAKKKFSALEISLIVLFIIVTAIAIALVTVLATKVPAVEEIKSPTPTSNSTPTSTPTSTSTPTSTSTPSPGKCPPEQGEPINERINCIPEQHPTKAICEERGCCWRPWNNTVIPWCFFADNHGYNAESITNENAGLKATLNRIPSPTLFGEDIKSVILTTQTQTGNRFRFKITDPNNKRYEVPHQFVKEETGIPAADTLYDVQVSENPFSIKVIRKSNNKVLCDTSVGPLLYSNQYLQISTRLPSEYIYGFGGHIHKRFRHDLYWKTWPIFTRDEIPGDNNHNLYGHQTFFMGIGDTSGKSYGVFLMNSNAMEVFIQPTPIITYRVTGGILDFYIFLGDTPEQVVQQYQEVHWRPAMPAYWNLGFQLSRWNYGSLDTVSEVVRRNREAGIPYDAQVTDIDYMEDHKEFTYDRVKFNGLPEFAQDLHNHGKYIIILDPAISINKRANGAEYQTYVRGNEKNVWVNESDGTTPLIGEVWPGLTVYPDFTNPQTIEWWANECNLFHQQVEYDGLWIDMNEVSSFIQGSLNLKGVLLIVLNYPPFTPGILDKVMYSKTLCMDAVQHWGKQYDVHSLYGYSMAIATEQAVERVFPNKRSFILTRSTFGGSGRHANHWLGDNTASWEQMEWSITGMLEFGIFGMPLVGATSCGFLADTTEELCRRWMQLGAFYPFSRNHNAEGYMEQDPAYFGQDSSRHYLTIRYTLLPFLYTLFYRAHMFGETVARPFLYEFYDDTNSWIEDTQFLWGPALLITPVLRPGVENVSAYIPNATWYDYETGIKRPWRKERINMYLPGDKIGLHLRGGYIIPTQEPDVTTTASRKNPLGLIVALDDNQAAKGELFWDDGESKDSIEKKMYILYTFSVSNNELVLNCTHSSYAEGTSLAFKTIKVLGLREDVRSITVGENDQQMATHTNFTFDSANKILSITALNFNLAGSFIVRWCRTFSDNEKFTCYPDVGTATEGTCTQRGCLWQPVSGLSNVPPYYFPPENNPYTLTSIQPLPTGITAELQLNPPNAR
Sucrase-isomaltase, intestinal (Rattus norvegicus), sequence (P23739 1014-1841 limits assumed): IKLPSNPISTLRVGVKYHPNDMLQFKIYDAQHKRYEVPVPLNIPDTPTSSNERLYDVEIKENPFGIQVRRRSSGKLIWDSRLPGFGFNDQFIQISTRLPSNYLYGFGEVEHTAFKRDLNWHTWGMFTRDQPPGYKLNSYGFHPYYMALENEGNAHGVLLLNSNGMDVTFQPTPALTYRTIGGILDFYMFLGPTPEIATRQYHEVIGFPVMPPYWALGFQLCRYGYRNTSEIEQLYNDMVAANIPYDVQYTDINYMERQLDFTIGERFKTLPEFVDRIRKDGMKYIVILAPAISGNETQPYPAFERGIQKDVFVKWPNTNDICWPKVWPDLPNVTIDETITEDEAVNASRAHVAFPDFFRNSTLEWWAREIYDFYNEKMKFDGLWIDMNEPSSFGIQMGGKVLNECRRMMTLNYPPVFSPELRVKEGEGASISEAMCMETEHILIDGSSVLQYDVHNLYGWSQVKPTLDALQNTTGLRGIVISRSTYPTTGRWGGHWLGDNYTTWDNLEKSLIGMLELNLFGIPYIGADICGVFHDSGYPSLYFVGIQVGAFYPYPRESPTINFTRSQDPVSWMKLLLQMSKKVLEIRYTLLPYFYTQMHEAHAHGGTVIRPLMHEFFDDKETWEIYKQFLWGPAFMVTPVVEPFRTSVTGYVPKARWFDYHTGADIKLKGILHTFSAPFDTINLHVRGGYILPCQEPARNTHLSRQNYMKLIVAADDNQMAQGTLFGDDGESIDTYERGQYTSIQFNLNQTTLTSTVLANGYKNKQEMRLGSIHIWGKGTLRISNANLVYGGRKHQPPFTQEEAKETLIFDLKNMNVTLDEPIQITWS
Sucrase-isomaltase, intestinal (Rattus norvegicus, UniProt P23739), sequence (P23739 1-1013 limits assumed): as the sequence (P23739 1-1013 limits assumed) above
Sucrase-isomaltase, intestinal (Rattus norvegicus, UniProt P23739), sequence (P23739 1014-1841 limits assumed): as the sequence (P23739 1014-1841 limits assumed) above

SMILES	Activity [1]	IC50 [2] [µM]	IC50 [3] [µM]	inhibition [4] [%]	inhibition [5] [%]
O=c1cc(-c2ccccc2)oc2cc(O)c(O)c(O)c12 [BAICALEIN]	Active	260	35	–	–
OC[C@H]1NC[C@H](O)[C@@H](O)[C@@H]1O	–	–	–	100	95
